From US6423855B1, “Cytoprotective compounds” (Virginia Commonwealth University, priority 1996, dated 2002)
Values after ≈ are worked out from the molar mass of the structure shown. Read-outs that look alike come from different tables or passages of the source.

Experiments:
[1] = solubility in water; assay type: physicochemical
Procedure: To 6.22 g (20.8 mmol) of ricinoleic acid and 4.00 g of triethylamine in 150 mL THF was added 2.31 g (9.0 mmol) of ethylenediamine tetraacetic acid dianhydride. After stirring 15 min at 40° C., 20 mL of acetonitrile was added, since ethylenediamine tetraacetic acid dianhydride was not dissolved completely. The solution was stirred for 72 h under reflux and gradually turned yellow during this time. The solvent was removed under reduced pressure. The mixture was suspended in 100 mL of ether and extracted twice with 50 mL of saturated aqueous sodium chloride. After drying the ether solution, the solvent was removed under reduced pressure. The residue was suspended in methanol and filtered. The solvent was removed under reduced pressure. The residual oil was purified by chromatography on silica gel, eluted with a gradient of acetone/methanol (70:30 v/v to 0:100 v/v). N,N-bis(oleic acid-12-oxycarbonylmethyl)-N-N′-bis(carboxylmethyl) ethylenediamine was isolated as a yellow solid with a yield of 1.23 g (14%).

[2] = test system: PLA2 activities derived from human platelets and human polymorphonuclear leukocytes (PMNs); assay: in vitro PLA2 activities from human platelets and PMNs; assay type: biochemical; settings: unesterified cis-unsaturated fatty acids
From the text: Oxidation of the sarcoplasmic reticulum of muscle and of phospholipid membranes predisposes them to phospholipase degradation. Phospholipid membranes that have been oxidized at particular sites may appear intact and maintain functional activity, but their oxidation makes them vulnerable to degradation and destruction by PLA2 or other phospholipases from endogenous or exogenous sources.

[3] = test system: clone W2 (P.falciparum); assay: 3H-hypoxanthine incorporation, P.falciparum clone W2; assay type: cell-based; settings: Plasmodium falciparum
[4] = test system: clone D6 (P. falciparum); assay: 3H-hypoxanthine incorporation, P.falciparum clone D6; assay type: cell-based; settings: Plasmodium falciparum
[5] = test system: epidermal layer; assay: transepidermal water loss; assay type: in vivo, human
Procedure: (§1) Two PX compounds PX-11 and PX-13 were evaluated in a cream formulation prepared under GMP. The chemicals were formulated into a bland cream and evaluated in the following human or mouse skin tests: (1) occluded patch test for irritation; (2) cell turnover rate; (3) transepidermal water loss; (4) skin moisturization; and (5) reduction in erythema after induced sunburn. The human skin tests were conducted on three volunteer female subjects, ages 29-32; a cream base with no added active was included as a control, while the untreated skin served as an additional basis for evaluation. Sunburn tests were performed on a total of 30 hairless albino mice. 3. Transepidermal water loss. This parameter was measured by affixing a flow cell on the forearm site, applying the cream, waiting 20 minutes, then flushing the volume with nitrogen and noting the moisture content of the effluent gases.

[6] = test system: epidermis cell turnover; assay: cell turnover rate (dansyl chloride); assay type: in vivo, human
Procedure: as §1, with “2. Cell turnover rate:” for “3. Transepidermal water loss.”, “adsorption of dansyl chloride, in which 3% dansyl chloride was incorporated into petrolatum. This salve was applied over” for “affixing”, “2.5 cm diameter circular area in” for “flow cell on”, “upper arm and a patch applied. 24 hours later” for “forearm site, applying”, “patch was removed. The intensity of dansyl chloride fluorescence was indicative” for “cream, waiting 20 minutes, then flushing the volume with nitrogen and noting the moisture content”, “cell turnover rate in the epidermis.” for “effluent gases.”

[7] = test system: ultraviolet-induced erythema; assay: protection against ultraviolet-induced erythema; assay type: in vivo, hairless albino mice
Procedure: The human skin tests were conducted on three volunteer female subjects, ages 29-32; a cream base with no added active was included as a control, while the untreated skin served as an additional basis for evaluation. Sunburn tests were performed on a total of 30 hairless albino mice.
5.Protection against ultraviolet-induced ervthema. The protection against ultraviolet-induced erythema (i.e., the burn and irritation produced after exposure to ultraviolet radiation), was measured by first irradiating 12 mice with destructive 3130 angstrom (Å) rays, applying the creams, and then evaluating the skin cells for erythema.

[8] = test system: outer skin layers; assay: skin moisturization (20 megahertz ultrasound); assay type: in vivo, human; settings: for Ultrasound Density Score: 30 minutes after application
Procedure: as §1, with “4. Skin moisturization. Skin moisturization” for “3. Transepidermal water loss. This parameter”, “using 20 megahertz ultrasound (the presence of moisture produces” for “by affixing”, “density decrease in” for “flow cell on”, “outer skin layers), before and 30 minutes after product application to” for “forearm site, applying”, “forearm.” for “cream, waiting 20 minutes, then flushing the volume with nitrogen and noting the moisture content of the effluent gases.”

With `CCCCCCC(CC=CCCCCCCCC(=O)O)OC(=O)CN(CCN(CC(=O)O)CC(=O)OC(CC=CCCCCCCCC(=O)O)CCCCCC)CC(=O)O` (centres unmarked) [N,N-Bis(oleic acid-12-oxycarbonylmethyl)-N-N′bis(carboxylmethyl) ethylenediamine] the solubility in water [1] was “readily soluble in water”.
With `CCCCC/C=C\C/C=C\C/C=C\C/C=C\CCCC(=O)O` [arachidonic acid] the “inhibition of in vitro PLA2 activity” value [2] was “inhibited”.
In the case of `CCCCCCCC/C=C\CCCCCCCC(=O)O` [oleic acid], the “inhibition of in vitro PLA2 activity” value [2] was “inhibited”.
`OC(c1cc(C(F)(F)F)nc2c(C(F)(F)F)cccc12)C1CCCCN1` (centres unmarked) [mefloquine] showed an IC50 ([3]; printed as control cultures sensitive to both drugs, compared with clone W2, read-out: IC50 growth) of 1.3 ng/mL (≈ 3.44 nM) and an IC50 ([4]; printed as control cultures sensitive to both drugs, compared with clone D6, read-out: IC50 growth) of 4.3 ng/mL (≈ 11.4 nM).
For `CCN(CC)CCCC(C)Nc1ccnc2cc(Cl)ccc12` (centres unmarked) [chloroquine], the IC50 ([3]; W2, read-out: IC50 growth) was 30 ng/mL (≈ 93.8 nM) and the IC50 ([4]; D6, read-out: IC50 growth) was 1.6 ng/mL (≈ 5 nM).
With tricinyl trioleate [PX-11] the “% Change in Transepidermal Water Loss” value ([5]; forearm, 20 minutes after applying cream) was “+649.0%”, the “effect on water loss from the epidermal layer” value ([5]; in vivo) was “opened the pores and permitted water to escape” and the “effectiveness at promoting water loss vs control” value ([5]; relative to control cream) was 10 times. The “Days to Cell Renewal Treated” value ([6]; cream-treated skin, upper arm) was 28.8 days, the “% Change in Cell Turnover Time” value ([6]; treated vs untreated skin) was “+34%” and the “Post-Radiation Erythema Ranking Mean” value ([7]; Mean, 1 = Best, 4 = Worst) was 2. The “Post-Radiation Erythema Ranking” value ([7]; Subject 1, 1 = Best, 4 = Worst) was 2, the “Post-Radiation Erythema Ranking” value ([7]; Subject 2, 1 = Best, 4 = Worst) was 2 and the “Post-Radiation Erythema Ranking” value ([7]; Subject 3, 1 = Best, 4 = Worst) was 2. The “erythema reduction vs base cream” value ([7]; mouse, in vivo) was “significantly better than the base cream”, the “Ultrasound Density Score” value ([8]; Subject 1, 7 = Best, 1 = Baseline) was 3 and the “Ultrasound Density Score” value ([8]; Subject 2) was 3. For the same compound, the “Ultrasound Density Score” value ([8]; Subject 3) was 1, the “Ultrasound Density Score Total” value ([8]; Total of 3 subjects, 7 = Best, 1 = Baseline) was 7 and the “moisturization properties” value ([8]; in vivo) was “good moisturization properties”.
In the case of `CCCCC/C=C\C/C=C\CCCCCCCC(=O)O` [linoleic acid], the “inhibition of in vitro PLA2 activity” value [2] was “inhibited”.
